These results are taken from patent publication US20090163436A1, “METHODS FOR DELIVERY OF NUCLEIC ACIDS” (Nucleonics, Inc., priority 2002, published 2009).

Series [1] can be described thus: Example 3: blood clearance of 14C-labeled plasmid DNA after IV administration.
Experimental: Bacteria containing the beta-galactosidase expression plasmid are grown in minimal M9 media (Miller, CSHS laboratory Press) in glucose as the sole carbon source overnight. The cells are washed in minimal media thrice through centrifugation and resuspension in M9 media without the carbon source, and resuspended in M9 with uniformally 14C-labeled ribose (NEN, MA) and deoxynucleosides (NEN, MA) for 3 hours. The cells are harvested, and the plasmid is isolated using Qiagen miniprep columns (Qiagen, Inc., CA). The labeled plasmid is mixed with unlabeled plasmid to achieve a specific activity of 3 million CPM per 100 ug plasmid.
(§1) DNA is complexed with spermines as described in the previous two examples at the optimal charge ratio of 0.8 with either the monolactosyl, trilactosyl, or mannosyl (mono and bis) spermine to achieve a final DNA concentration of 1.0 mg/mL in citrate buffer at 5 mM and 150 mM NaCl.
The mice, 5 per group, are injected intravenously through the tail vein (100 uL). Mice are sacrificed at various times as indicated for serum analysis of plasmid DNA to determine blood clearance. To determine the amount of plasmid in blood, one mL of serum is placed in liquid scintillation counters with fluor to quantify the CPMs associated with each sample. […]
Series [2] in a line: Example 3: tissue distribution of labeled DNA after IV administration. The note with it: for total amount of CPMs in all of the organs combined, rank order: 5 days following IV, lung, heart, kidney, spleen, liver.
Experimental: as §1
(§2) The mice, 5 per group, are injected intravenously through the tail vein (100 uL). Mice are sacrificed at various times as indicated for serum analysis of plasmid DNA to determine blood clearance. To determine the amount of plasmid in blood, one mL of serum is placed in liquid scintillation counters with fluor to quantify the CPMs associated with each sample. In order to determine tissue distribution, various organs are harvested on day 5 (peak of expression from previous studies) and snap frozen. Whole organs from the animals are harvested livers from 3 animals in the group of 5 are ground in mild alkali (100 mM KOH) and neutralized with acid (HCl) prior to scintillation counting. Livers from the remaining two animals are embedded in paraffin and sectioned as described in Example 2 and stained for betagalactosidase activity, as described.
(§3) In the second part of the study, distribution of DNA amongst some of the major organs is evaluated 5 days following IV administration. A simple tissue grind and scintillation counting is carried out. The organs chosen (lung, heart, kidney, spleen, and liver) for analysis represent the major capillary beds.
The test system of series [3] is cells derived from the spleen. The conditions noted are these: IV administration, separate study.
Experimental: The complexes are prepared as described above except that 5 mM citrate and 150 mM NaCl are used as buffer. To determine the transfection efficiency, the spleen is removed from mice on day 5. Cells are recovered by crushing the spleen on a slide and observing EGFP fluorescence by fluorescent microscopy. The cell type is identified by cross-staining staining the preparation with labeled MAC1 antibody (macrophage identification) or labeled mannosylated BSA (identification of mannose receptor containing cells) (Current Protocols in Immunology).
In the study evaluating the distribution and blood clearance of DNA following an IV administration, labeled DNA is separately complexed with modified spermines (only monocomplexes of any one spermine is used in this study). Mannose (mono and bis) and lactose (mono and tri) spermines are used separately in these complexes. Unmodified spermine and spermidine complexes with DNA serve as controls.
Series [4] is described as follows: Example 4: phase location of DNA in cationic amphiphile emulsions. The note with it: formulation containing the named cationic amphiphile. The format is physicochemical.
The nature of series [5]: In vivo transfection with local anesthetic complexed DNA versus naked DNA. The conditions noted are these: IL12 DNA complexed with 0.25% bupivacaine. An excerpt: As compared to cationic lipids, simple structures derived from water-soluble amphiphiles have a higher probability of forming transfecting structures that are uniform and homogenous, which is expected to result in increased efficiency, predictability, and potency. We selected cationic amphiphiles that are membrane active, such as the local anesthetics, e.g., bupivacaine (see U.S. Pat. No. 6,383,512, “Vesicular complexes and methods of making and using the same,” which describes compositions comprising lamellar vesicles that comprise a local anesthetic, e.g., bupivacaine, and a nucleic acid molecule). In particular, this reference describes compositions and methods for delivery of nucleic acid molecules that are antisense, ribozyme, or triplex forming nucleic acid molecules, as well as nucleic acid molecules that encode proteins (e.g., non-immunogenic therapeutically effective proteins, and immunogenic proteins designed to elicit a desired immune response in a host). Experiments were carried out to determine whether such vesicular complexes could be used to deliver dsRNA expression constructs capable of eliciting RNAi. […] Additionally, these are currently used in humans, and their toxicity/dose profiles are well characterized. In contrast, the associated toxicity of lipids that transfect efficiently in vitro may preclude their use in vivo. […]

Series [6] can be described thus: Example 4: oral delivery of luciferase plasmid microemulsions. The protocol: The objective is to develop microemulsion (ME) formulations designed for oral delivery of DNA. Microemulsions for oral delivery are prepared using a mixture that contains DNA or other nucleic acids (2.0 mg/mL in, e.g., 30 mM citrate, 150 mM NaCl pH 6.8 buffer) and benzalkonium chloride (0.1%). The mixture is further mixed in equal volumes to a mixture that contains seven parts of Labrasol™ (Gattefosse, Saint-Priest Cedex, France), one part of Lauroglycol (polypropylene esters such as Lauroglycol FCC for oral administration from Gattefosse, France) and two parts of ethanol. Other formulations contain bupivacaine at 0.25%, octyl spermine at 2.0 mg/mL, or cholesteryl spermine at 2.0 mg/mL, instead of benzalkonium chloride and lauroglycol in the above formulation. […] The DNA tested is an expression plasmid for luciferase (Promega Corp.). […] The formulation (100 uL) containing DNA is fed to mice (5 in one formulation group) by intubating the stomach. Five days following administration, several organs including kidney, liver, lung, intestinal segments (ileum, duodenum, small intestine and large intestine), brain, heart, and spleen are harvested and snap frozen. The tissues are homogenized in luciferase buffer (Promega Corp., Madison, Wis.) using a polytron. Luciferase activity is determined using a luminometer (Berthold) and in the assay buffer (Promega Corp., Madison, Wis.).

Series [7] deals with liver cells (hepatocytes, Kupfer cells). The note with it: IV; for liver cell type transfected: betagal staining of liver slices. On the procedure: The mixture is injected intravenously (100 uL) of 5 mice for each formulation variant. Formulations variants included different charge ratios and various lactosyl spermine to cholesteryl spermine ratios. At 5 days postinjection, when in vivo plasmid expression peaks, the mice are sacrificed, and their livers are removed and snap frozen for histological analysis. Several slices of the liver tissue both near and farther from the major blood vessels and the bile ducts are embedded into paraffin and sectioned using a microtome. The tissue slices are stained using X-gal (an enzymatic substrate for betagalactosidase). The liver tissue slices are stained using labeled lactosylated BSA, as a cross stain to identify hepatocytes (asialoglycoprotein receptor). The slides are viewed under an UV fluoroscent microscope to detect the label fluorescence, and the betgal stain is observed under light microscopy. Control mice are administered “naked” DNA free of added complexing agents and DNA complexed with either lactosyl spermine or cholesteryl spermine, but not both.

For series [8] the following is noted: mouse, in vivo, iv.
Experimental: as §1, §2, §3
For series [9], the system named is peritoneal cells (macrophages, dendritic cells).
Experimental: Peritoneal fluid was isolated from mice. Plasmid DNA designed to express the green fluorescent protein (GFP) in mammalian cells was complexed with a mixture of the two spermines, mannosyl-mannosyl-spermine and cholesteryl spermine, at different ratios. The complexes were applied to peritoneal cells in culture. The fluorescence intensity of the cells were recorded. The complexes that were prepared for the ex vivo study were injected into the peritoneal cavity of mice. Four and five days following the injection, the cells were collected from the peritoneal cavity and spun down on slides and their ability to fluoresce was determined. The fluorescence intensities were recorded visually.
Labeled antibodies to defined cell surface markers were used to identify the cell type.
Another series concerns IL-12 p40. Description: Example 5: serum IL-12 p40 ELISA after intramuscular IL-12 plasmid in Balb/C mice. The conditions noted are these: mouse, in vivo. The protocol:
Expression of the murine IL-12 transgenes was achieved through the use of vectors containing the HCMV IE promoter and SV40 polyadenation signal. ELISA of serum IL-12 p40 levels affords a facile system to analyze expression levels and the effectiveness of the administered DNA. p40 is one of the two polypeptide chains comprising IL-12.
In all of the RNAi studies described here using IL12 DNA (IL12, dsRNA producing vector and vector encoding T7 RNA polymerase), IL12 DNA was administered as a complex with bupivacaine, a local anesthetic, since higher in vivo transfection efficiencies (˜3×) are achieved with this complex over those mediated by naked DNA. […]
In another set of experiments, murine IL-12 p40 expression in sera was monitored in mice following intramuscular injection of a 100 ug dose of murine IL-12 expression plasmids or in naïve mouse controls that were not injected. […]
Murine IL-12 p40 serum expression was monitored following intramuscular injection of 100 ug IL-12 expression plasmids in mice injected at days 0 and 150 or in mice injected only at day 150. […]
(An ELISA detects its analyte on a solid surface through an enzyme-linked reagent.)

Like-named read-outs stand apart in the source and are kept apart here.

Take `CC(=O)O.CC(=O)O.CC(=O)O.CC(=O)O.NCCCN(CCCCCNC(=O)CCS[C@H]1O[C@H](CO)[C@@H](O)[C@H](O)[C@@H]1O)CCCCN(CCCN)CCCCCNC(=O)CCS[C@H]1O[C@H](CO)[C@@H](O)[C@H](O)[C@@H]1O` [bismannosyl spermine, N^4,N^8-bis (5-N-(α-3′-propionamido thiomannoside)pentyl)-spermine tetraacetate]: the “blood clearance slower than trilactosyl spermine complexes” value in series [1] (DNA monocomplex) is on record as 50-100 times. For the same molecule, the “blood clearance of DNA” value in [1] (DNA monocomplex with the named spermine, charge ratio 0.8) is “rapid clearance”. Moreover, in series [2], the “total amount of CPMs in all of the organs combined, rank order” value was “trilactosyl>monolactosyl≅bismannosyl≅monomannosyl>>>controls”. Further, in series [3], the “cells taking up the complexes” value is “taken up exclusively by cells of the macrophage and dendritic cell lineages”.
For the molecule `CCCCN1CCCCC1C(=O)Nc1c(C)cccc1C` (centres unmarked) [bupivacaine, reference compound], the “phase of the oil in water emulsion that holds the DNA” value (from here on “phase of the oil”) in [4] is listed as “in the oil phase”. Also, in series [5], the “in vivo transfection efficiency over naked DNA” value was ~3 ×. In addition, the “systemic absorption of DNA” value in series [6] (mouse, in vivo, po) is on record as “Maximal systemic absorption”.
With `CC(C)CCC[C@@H](C)[C@H]1CC[C@H]2[C@@H]3CC=C4C[C@@H](OC(=O)NCCCCCN(CCCN)CCCCNCCCN)CC[C@]4(C)[C@H]3CC[C@]12C.Cl` [cholesteryl spermine, N^4-(5-N-(3β-O-carbamoyl-5-cholestene)-1-pentyl)-spermine Hydrochloride], the “phase of the oil” value in series [4] is recorded as “in the oil phase”. In addition, in series [6] (oral microemulsion containing the named cationic amphiphile), the “systemic absorption of DNA” value is “Maximal systemic absorption”.
On to “N^4-(5-(trilactosyllysyllysyl) amidopentyl spermine triacetate [trilactosyl spermine]”, for which, in series [2], the “total amount of CPMs in all of the organs combined, rank order” value was “trilactosyl>monolactosyl≅bismannosyl≅monomannosyl>>>controls”.
With benzalkonium chloride, in [4], the “phase of the oil” value was “in the oil phase”. For the same molecule, the “systemic absorption of DNA” value in series [6] (mouse, in vivo, po) was “Maximal systemic absorption”.
For lactosyl spermine, the “retention of DNA” value in [2] (IV, DNA monocomplex with modified spermine) came out at 30%. Besides, the “liver cell type transfected” value in [7] is on record as “primarily transfect hepatocytes”. Besides, the “DNA internalization, cell type” value in series [7] (liver sections, day 5) is “exclusively into hepatocytes”. Also, the betagalactosidase expression entry in series [7] (liver sections, no cholesteryl spermine in complex) is “poor”.
With mannosyl spermine, in series [8], the “retention of DNA” value worked out at 85%. For the same molecule, the “liver cell type transfected” value in series [7] is “transfect Kupfer cells”. Moreover, the “expression from the internalized plasmid” value in series [9] (GFP plasmid) is recorded as “observed only when cholesteryl spermine was included”. Further, the “internalization of labeled DNA particles” value in [9] (all of the tested ratios) was “internalized”.
With octyl spermine, the “phase of the oil” value in series [4] is reported as “in the oil phase”. Besides, the “systemic absorption of DNA” value in series [6] (mouse, in vivo, po) was “Maximal systemic absorption”.

B1: recombinant murine IL-12: recombinant murine IL-12 protein, 50 ug at day 0 (protein, UniProt P43431 23-215; P43432 23-335, looked up)
Interleukin-12 subunit alpha: RVIPVSGPARCLSQSRNLLKTTDDMVKTAREKLKHYSCTAEDIDHEDITRDQTSTLKTCLPLELHKNESCLATRETSSTTRGSCLPPQKTSLMMTLCLGSIYEDLKMYQTEFQAINAALQNHNHQQIILDKGMLVAIDELMQSLNHNGETLRQKPPVGEADPYRVKMKLCILLHAFSTRVVTINRVMGYLSSA
Interleukin-12 subunit beta: MWELEKDVYVVEVDWTPDAPGETVNLTCDTPEEDDITWTSDQRHGVIGSGKTLTITVKEFLDAGQYTCHKGGETLSHSHLLLHKKENGIWSTEILKNFKNKTFLKCEAPNYSGRFTCSWLVQRNMDLKFNIKSSSSSPDSRAVTCGMASLSAEKVTLDQRDYEKYSVSCQEDVTCPTAEETLPIELALEARQQNKYENYSTSFFIRDIIKPDPPKNLQMKPLKNSQVEVSWEYPDSWSTPHSYFSLKFFVRIQRKKEKMKETEEGCNQKGAFLVEKTSTEVQCKGGNVCVQAQDRYYNSSCSKWACVPCRVRS
On to B1, for which the “effect of pre-treatment on IL-12 expression” value in the series with IL-12 p40 is “does not prevent subsequent expression”.
